Consider three compounds from patent US5589485A, “Dorrigocin antitumor agents” (priority 1995, dated 1996).

≈ marks a conversion by molar mass, not a printed value. Read-outs that look alike come from different tables or passages of the source.

Series [1] concerns Saccharomyces cereviseae GS1-36. Nature of the series: In vitro antifungal activity, agar dilution MIC. It counts as cell-based. How it is done: (§1) Minimal inhibitory concentrations (MICs) were determined by an agar dilution method. The test compounds were serially diluted in MeOH and 0.2 ml portions were mixed with 20 ml of molten, cooled Sabouraud dextrose agar (Difco). Yeast cell inoculum was prepared by growing cultures on Sabouraud dextrose agar for 18 hours at 32° C. and suspending the cells in phosphate buffered saline. Filamentous fungi were grown under the same conditions for 4 days to obtain spores. The inoculum level for all cultures was adjusted to 10^4 cells using a Petroff-Hauser cell counter. The glutarimide antifungal compound cycloheximide was used as a control. Inoculated test plates were incubated at 32° C. and examined after 20 hours.

For the next series, the system named is Candida albicans 579A. The experiment in a line: In vitro antifungal activity, agar dilution MIC. It counts as cell-based. As to the method: as §1
(In agar dilution, organisms are placed on agar that contains the substance at set levels.)

Series [2] relates to Candida tropicalis NRRL-Y-112. The experiment in a line: In vitro antifungal activity, agar dilution MIC. The class given is cell-based. How it is done: as §1
The subject of series [3] is Torulopsis glabrata ATCC 15545. The experiment in a line: In vitro antifungal activity, agar dilution MIC. It counts as cell-based. As to conditions: Nakaseomyces glabratus. As to the method: as §1
The next series concerns A. fumigatus ATCC 26430. The experiment in a line: In vitro antifungal activity, agar dilution MIC. As to conditions: Aspergillus fumigatus. It counts as cell-based. How it is done: as §1
In series [4] the test system is Fusarium moniliforme AARC 0397. Nature of the series: In vitro antifungal activity, agar dilution MIC. As to conditions: Fusarium verticillioides. It counts as cell-based. As to the method:
as §1

Series [5] has as its system Candida albicans ATCC 10231. The experiment in a line: In vitro antifungal activity, agar dilution MIC. It counts as cell-based. As to the method: as §1
Series [6] concerns Aspergillus niger ATCC 16404. Nature of the series: In vitro antifungal activity, agar dilution MIC. The class given is cell-based. As to the method: as §1
Series [7] concerns Candida albicans ATCC 38247. Nature of the series: In vitro antifungal activity, agar dilution MIC. It counts as cell-based. As to the method: as §1
In the next series the test system is F. solani AARC 0353. Nature of the series: In vitro antifungal activity, agar dilution MIC. It counts as cell-based. As to conditions: Fusarium solani. As to the method: as §1
For series [8], the system named is A. parasiticus NRRL 13539. The experiment in a line: In vitro antifungal activity, agar dilution MIC. It counts as cell-based. The note with it: Aspergillus parasiticus. As to the method:
as §1

The subject of a further series is A. flavus NRRL 6541. Nature of the series: In vitro antifungal activity, agar dilution MIC. It counts as cell-based. The note with it: Aspergillus flavus. As to the method:
as §1

A short description of another series: Solubility. It counts as physicochemical.
Series [9] relates to K-ras-transformed NIH/3T3 mouse fibroblasts. Nature of the series: In vitro antitumor activity: transformed foci / morphology reversion. The class given is cell-based. The note with it: for activity at 0.4 µg/mL: compound dose 0.4 μg/ml; for morphology reversion of transformed cells: microscopic examination. How it is done: Transformed cells are typically rounded when the mutant ras gene is expressed. Normal cells, on the other hand, are flat and adhere to the bottom of a tissue culture plate.
Normal and transformed NIH/3T3 cells were cultured in Dulbecco's modified Eagle medium containing 10% fetal bovine serum, and gentamicin 50 μg/ml at 37° C. in 5% CO2. Ras transformants also contained […] G418. To test the effect of Dorrigocins, 2×10^4 cells were added to 24 well microtiter plates and incubated for 24 hours at 37° C. when the cells had uniformly adhered to the microtiter tray, various concentrations of Dorrigocin A and B dissolved in DMSO, were added and the plates incubated at 37° C. for an additional 48 hours. Cellular morphology was examined microscopically and the average number of transformed foci per field was determined by counting at least 6 separate fields. These foci represent transformed cells that were unaffected by the addition of compound.

Where [10] appears, read: GS136, Sabouraud dextrose agar, 32° C., 20 hours, read-out: MIC.
Setting [11] is: Sabouraud dextrose agar, 32° C., 20 hours, read-out: MIC.
[12] abbreviates: NRRLY112, Sabouraud dextrose agar, 32° C., 20 hours, read-out: MIC.
Where [13] appears, read: ATCC15545, Sabouraud dextrose agar, 32° C., 20 hours, read-out: MIC.
Setting [14] is: ATCC26430, Sabouraud dextrose agar, 32° C., 20 hours, read-out: MIC.
[15] abbreviates: AARC0397, Sabouraud dextrose agar, 32° C., 20 hours, read-out: MIC.
The mark [16] stands for this setting: ATCC10231, Sabouraud dextrose agar, 32° C., 20 hours, read-out: MIC.
[17] abbreviates: ATCC16404, Sabouraud dextrose agar, 32° C., 20 hours, read-out: MIC.
[18] abbreviates: ATCC38247, Sabouraud dextrose agar, 32° C., 20 hours, read-out: MIC.
Where [19] appears, read: AARC0353, Sabouraud dextrose agar, 32° C., 20 hours, read-out: MIC.
Where [20] appears, read: NRRL13539, Sabouraud dextrose agar, 32° C., 20 hours, read-out: MIC.
Setting [21] is: NRRL6541, Sabouraud dextrose agar, 32° C., 20 hours, read-out: MIC.
The mark [22] stands for this setting: Mus musculus, NIH3T3, 48 hours, untreated NIH/3T3 K-ras = 100, read-out: Transformed foci percentage.

Broadly, the MIC is the lowest concentration found to suppress growth. As to `C[C@@H]1C[C@@H]([C@H](O)CC2CC(=O)NC(=O)C2)C(=O)[C@@H](C)C1` [Cycloheximide, cycloheximide, reference compound], the MIC in series [1] (GS136, 20 h) was below 0.05 µg/mL; against Candida albicans 579A (20 h) it was above 100 µg/mL; in series [2] (NRRLY112, 20 h) it was 0.4 µg/mL (≈ 1.42 µM); in [3] (ATCC15545, 20 h), 0.4 µg/mL (≈ 1.42 µM); against A. fumigatus ATCC 26430 (ATCC26430, 20 h) it was 1.6 µg/mL (≈ 5.69 µM); in series [4] (AARC0397, 20 h), 0.8 µg/mL (≈ 2.84 µM). The minimal inhibitory concentration (MIC) in series [5] (ATCC10231, 20 h) is above 100 µg/mL; in series [6] (ATCC16404, 20 h), 1.6 µg/mL (≈ 5.69 µM); in series [7] (ATCC38247, 20 h), above 100 µg/mL; in the series on F. solani AARC 0353 (AARC0353, 20 h) it was 0.8 µg/mL (≈ 2.84 µM); in series [8] (NRRL13539, 20 h) it was 25 µg/mL (≈ 88.9 µM); with A. flavus NRRL 6541 (NRRL6541, 20 h), 50 µg/mL (≈ 178 µM).
For the compound `COC(C=CCCC=CC(=O)O)C(O)C(C)C=C(C)C(O)C(C)C(=O)CCCC1CC(=O)NC(=O)C1` (stereo not drawn) [Dorrigocin A], the “solubility in methanol and dimethylsulfoxide” value in “Solubility” was “readily soluble in methanol and dimethylsulfoxide”. The minimal inhibitory concentration (MIC) in series [1] (setting [10]) was above 100 µg/mL; in the series on Candida albicans 579A (setting [11]), above 100 µg/mL; in series [2] (setting [12]) it was above 100 µg/mL; in series [3] (setting [13]), above 100 µg/mL; in the series on A. fumigatus ATCC 26430 (setting [14]), 25 µg/mL (≈ 49.2 µM); in series [4] (setting [15]), 100 µg/mL (≈ 197 µM). In addition, the MIC in [5] (setting [16]) is above 100 µg/mL; in [6] (setting [17]), 25 µg/mL (≈ 49.2 µM); in [7] (setting [18]), above 100 µg/mL; with F. solani AARC 0353 (setting [19]) it was 25 µg/mL (≈ 49.2 µM); in [8] (setting [20]) it was above 100 µg/mL; in the series with A. flavus NRRL 6541 (setting [21]), above 100 µg/mL. In [9] (48 hours), the “dose dependence of morphology reversion” value was “dose-dependent”. In addition, the “relative effectiveness in morphology reversion and reduction in the number of foci” value in series [9] (Dorrigocin A compared with Dorrigocin B) is given as “more effective than Dorrigocin B”. For the same compound, the activity at 0.08 µg/mL in [9] (Mus musculus, NIH3T3, compound dose 0.08 μg/ml, 48 hours, untreated NIH/3T3 K-ras = 100, read-out: Transformed foci percentage) was 76%. The activity at 0.4 µg/mL in series [9] (setting [22]) is 26%. Also, the activity at 10 µg/mL in series [9] (Mus musculus, NIH3T3, compound dose 10 μg/ml, 48 hours, untreated NIH/3T3 K-ras = 100, read-out: Transformed foci percentage) stood at 22%. The “morphology reversion of transformed cells” value in series [9] (48 hours) is recorded as “caused transformed cells to revert to a morphology resembling that of normal cells”.
For `COC(C=CCCC=CC(=O)O)C(O)C(C)C(O)C(C)=CC(C)C(=O)CCCC1CC(=O)NC(=O)C1` (stereo not drawn) [Dorrigocin B], the “solubility in methanol and dimethylsulfoxide” value in the series “Solubility” was “readily soluble in methanol and dimethylsulfoxide”. Further, the MIC in series [1] (setting [10]) was above 100 µg/mL; with Candida albicans 579A (setting [11]) it was above 100 µg/mL; in [2] (setting [12]), above 100 µg/mL; in series [3] (setting [13]) it was above 100 µg/mL; in the series on A. fumigatus ATCC 26430 (setting [14]), 12.5 µg/mL (≈ 24.6 µM); in [4] (setting [15]), 50 µg/mL (≈ 98.5 µM). In addition, the MIC was above 100 µg/mL in series [5] (setting [16]); 12.5 µg/mL (≈ 24.6 µM) in [6] (setting [17]); above 100 µg/mL in [7] (setting [18]); 25 µg/mL (≈ 49.2 µM) in the series with F. solani AARC 0353 (setting [19]); 100 µg/mL (≈ 197 µM) in series [8] (setting [20]); 100 µg/mL (≈ 197 µM) in the series with A. flavus NRRL 6541 (setting [21]). Further, the “dose dependence of morphology reversion” value in series [9] (48 hours) is on record as “dose-dependent”. Besides, the activity at 10 µg/mL in series [9] (Mus musculus, NIH3T3, 48 h, read-out: Transformed foci percentage) amounted to 7%. Further, the activity at 0.4 µg/mL in [9] (setting [22]) was determined as 96%. For the same compound, the “morphology reversion of transformed cells” value in [9] (48 hours) is “caused transformed cells to revert to a morphology resembling that of normal cells”.
